In patent EP0241232A1, “Isoxazolylethanol derivatives” (SHIONOGI SEIYAKU KABUSHIKI KAISHA, priority 1986, dated 1987):
Like-named read-outs stand apart in the source and are kept apart here.

Experiments:
[1] = system: Candida albicans KE-2; assay: Therapeutic effect against experimental candidiasis in mice; format: in vivo; settings: KE2, po, 120 h, mouse survival ratio on the 5th day after infection, Jcl-ICR female mouse, 50 mg/kg orally three times (0, 4, 24 hours)
Method: After Candida albicans KE-2 was incubated on Sabouraud's glucose agar at 28 °C for 48 hr., it was suspended in Sabouraud's glucose broth and the cells ([…]) were injected to a tail vein of Jcl-ICR female mouse (4 weeks age; weight : 18 - 20 g). A suspension of the test compound in 2 % gum arabic was orally administered three times, immediately after infection of the yeast ( 0 hour), after 4 hours and after 24 hours, as a dosage of 50 mg/kg. Non-treated group was used as control. Each eight mice per group was used in control group and treated group. All the mice in control group died within 48 hr. after infection. Therapeutic effect of the test compound was judged by mouse survival ratio on the 5th day after infection.

[2] = system: Candida albicans KE-2; assay: Inhibition test against pseudomycelium formation of Candida albicans; format: cell-based; settings: KE2, minimum effective concentration preventing typical pseudomycelium formation, Eagle-MEM + 20 % calf serum, 18 hours at 37 °C, read-out: Inhibitory Concentration of Pseudo-myselium Formation
Method: Candida albicans KE-2 was inoculated to Eagle-MEM medium (Nissan 2 made by Nissui Seiyaku, Ltd.) supplemented with 20 % calf serum so that its final inoculum of yeast cell might be 1 x 10^6 yeast cells per milliliter. The test compounds were added thereon in two fold dilution series. After incubation for 18 hours at 37 °C, the fungal growth in each drug concentration was smeared and fixed on a slide glass, and the presence or absence of the pseudomycelium formation was examined by a microscope following Giemsa staining. Minimum effective concentration was defined as the lowest concentration of the compound which prevented typical pseudomycelium formation.

[3] = system: Rhizoctonia solani; assay: Control by seed-soaking: Rhizoctonia damping-off in cucumber; format: in vivo; settings: 360 h, read-out: Control Index Rhizoctonia Damping-Off in Cucumber
Method: (§1) The test compound was dissolved in 0.2 ml of acetone and suspended in demineralized distilled water containing a small amount of spreader, to a concentration of 500 ppm. The suspension was further diluted to one quarter dilution with demineralized distilled water (containing a small amount of spreader) to give a suspension in 125 ppm. All seeds of oats, wheat and cucumber were soaked in these suspensions at room temperature for an hour and then the seeds were air-dried.
(§2) The seeds as described above were sown in plastic pots (diameter : 9 cm). For rust and powdery mildews, the pots were kept in a glasshouse for 1 - 3 weeks until the seeds grew to young plants. The young oats (10 - 20 plants per pot) were inoculated by dusting with spores of Puccinia coronata, and the wheat (10 - 20 plants per pot) was also inoculated by spraying with spores of Erysiphe graminis f. sp. tritici, and the cucumber (1 plant per pot) was also inoculated by spraying with spore suspension of Sphaerotheca fuliginea. These inoculated plants were further kept in a glasshouse for 10 - 14 days until assessment. For damping-off, the treated seeds were sown in paper pots (diameter : 7.5 cm; depth : 6 cm) which contained soil infested with Rhizoctonia solani by mixing sterilized soil and pre-cultured fungus. Then the pots were kept in a humid glasshouse at 25 - 32 ^*C.
(§3) Damping-off was observed 15 days after sowing, and disease degree and control effect were obtained from the following equations. [formula] [formula] where diseased seedlings included damping-off and unemerged'seeds due to infection. For the foliar diseases, disease development was observed 10 - 14 days after inoculation of spores, and control effect was obtained by the following index.

[4] = system: Sphaerotheca fuliginea; assay: Control of cucumber powdery mildew by foliar spray; format: in vivo; settings: observed 10 days after inoculation; for Control Index Preventive Effect: inoculation 24 hr. after application; for Control Index Curative Effect: inoculation 24 hr. before application
Method: The test compound was dissolved in a small amount of acetone and suspended in demineralized distilled water containing a spreader, to a concentration of 7.8 ppm and 2.0 ppm. Young cucumber plants (c.v. Tsukuba-Shiroibo) of 2-leaf stage grown in pots were sprayed sufficiently with the suspension.
Spores of Sphaerotheca fuliginea cultured in cucumber plants were collected and suspended in distilled water. Inoculation was made by spraying with the spore suspension to the test plant of 24 hr. after application of the test compound (preventive control) or 24 hr. before application (curative control).
Development of the disease was observed 10 days after inoculation and control index was obtained as described in Experiment 3.

[5] = system: Sphaerotheca fuliginea; assay: Control by seed-soaking: powdery mildew in cucumber; format: in vivo
Method: as §1, §2, §3

[6] = system: Puccinia coronata; assay: Control by seed-soaking: crown rust in oats; format: in vivo
Method: as §1, §2, §3

[7] = system: Erysiphe graminis f. sp. tritici; assay: Control by seed-soaking: powdery mildew in wheat; format: in vivo
Method: as §1, §2, §3

[8] = seed-soaking, 125 ppm, observed 15 days after sowing, control effect by equation
[9] = seed-soaking, 500 ppm, observed 15 days after sowing, control effect by equation

Row | Structure (SMILES) | responders at 50 mg/kg [1] | minimal effective concentration [2] | pest or weed control at 125 ppm [3, 8] | pest or weed control at 500 ppm [3, 9] | Control Index Preventive Effect ([4]; foliar spray 2.0 ppm) | Control Index Curative Effect ([4]; foliar spray 2.0 ppm) | Control Index Preventive Effect ([4]; foliar spray 7.8 ppm) | Control Index Curative Effect ([4]; foliar spray 7.8 ppm) | further results
1 | CCc1cc(C(O)(Cn2cncn2)c2ccc(F)cc2F)no1 (stereo not shown) [Ia - 10] | 50% | 0.08 µg/mL | – | – | – | – | – | – | –
2 | CC(C)(C)c1cc(C(O)(Cn2cncn2)c2ccc(F)cc2F)no1 (stereo not shown) [Ia - 12] | – | 0.31 µg/mL | – | – | – | – | – | – | –
3 | Cc1onc(C(O)(Cn2cncn2)c2ccc(Cl)cc2)c1Cl (stereo not shown) [Ib - 1, 1-(4-Chlorophenyl)-1-(5-methyl-4-chloroisoxazol-3-yl)-2-(1H-1,2,4-triazol-1-yl)ethanol] | – | 0.31 µg/mL | 35% | 88% | 70 (Leaves covered with symptom between 16 % and 45 % area) | 97 (Leaves covered with symptom less than 3 % area) | 97 (Leaves covered with symptom less than 3 % area) | 100 | –
4 | Cc1cc(C(O)(Cn2cncn2)c2ccc(F)cc2F)no1 (stereo not shown) [Ia - 8] | 50% | 0.08 µg/mL | 74% | 94% | 90 (Leaves covered with symptom between 4 % and 15 % area) | 90 (Leaves covered with symptom between 4 % and 15 % area) | 97 (Leaves covered with symptom less than 3 % area) | 100 | –
5 | OC(Cn1cncn1)(c1ccc(F)cc1)c1ccon1 (stereo not drawn) [Ia - 1, 1-(4-Fluorophenyl)-1-(isoxazol-3-yl)-2-(1H-1,2,4-triazol-l-yl)ethanol] | 87.5% | 0.31 µg/mL | 71% | 90% | – | – | – | – | Control Index Powdery Mildew in Cucumber ([5]; 125 ppm): 0 (Leaves covered with symptom more than 66 %); Control Index Powdery Mildew in Cucumber ([5]; 500 ppm): 70 (Leaves covered with symptom between 16 % and 45 % area); Control Index Crown Rust in Oats ([6]; 125 ppm): 50 (Leaves covered with symptom between 46 % and 65 % area); Control Index Crown Rust in Oats ([6]; 500 ppm): 90 (Leaves covered with symptom between 4 % and 15 % area); Control Index Powdery Mildew in Wheat ([7]; 125 ppm): 70 (Leaves covered with symptom between 16 % and 45 % area); Control Index Powdery Mildew in Wheat ([7]; 500 ppm): 100
6 | Cc1cc(C(O)(Cn2cncn2)c2ccc(Cl)cc2Cl)no1 (stereo not shown) [Ia - 7] | – | 0.02 µg/mL | 92% | 94% | 90 (Leaves covered with symptom between 4 % and 15 % area) | 97 (Leaves covered with symptom less than 3 % area) | 100 | 100 | Control Index Crown Rust in Oats ([6]; 125 ppm): 70 (Leaves covered with symptom between 16 % and 45 % area); Control Index Crown Rust in Oats ([6]; 500 ppm): 100; Control Index Powdery Mildew in Wheat ([7]; 125 ppm): 70 (Leaves covered with symptom between 16 % and 45 % area); Control Index Powdery Mildew in Wheat ([7]; 500 ppm): 70 (Leaves covered with symptom between 16 % and 45 % area)
7 | Cc1cc(C(O)(Cn2cncn2)c2ccccc2)no1 (stereo not shown) [Ia - 9] | – | 0.31 µg/mL | – | – | – | – | – | – | –
8 | Cc1cc(C(O)(Cn2cncn2)c2ccc(Cl)cc2)no1 (stereo not shown) [Ia - 5] | 87.5% | 0.02 µg/mL | 66% | 94% | 70 (Leaves covered with symptom between 16 % and 45 % area) | 97 (Leaves covered with symptom less than 3 % area) | 97 (Leaves covered with symptom less than 3 % area) | 100 | Control Index Powdery Mildew in Cucumber ([5]; 125 ppm): 0 (Leaves covered with symptom more than 66 %); Control Index Powdery Mildew in Cucumber ([5]; 500 ppm): 70 (Leaves covered with symptom between 16 % and 45 % area); Control Index Crown Rust in Oats ([6]; 125 ppm): 50 (Leaves covered with symptom between 46 % and 65 % area); Control Index Crown Rust in Oats ([6]; 500 ppm): 97 (Leaves covered with symptom less than 3 % area); Control Index Powdery Mildew in Wheat ([7]; 125 ppm): 70 (Leaves covered with symptom between 16 % and 45 % area); Control Index Powdery Mildew in Wheat ([7]; 500 ppm): 100
9 | Cc1cc(C(O)(Cn2ccnc2)c2ccc(F)cc2)no1 (stereo not shown) [Ia - 13, 1-(4-Fluorophenyl)-1-(5-methylisoxazol-3-yl)-2-(1H-imidazol-1-yl)ethanol] | – | 0.63 µg/mL | – | – | – | – | – | – | –
10 | CCCCc1cc(C(O)(Cn2cncn2)c2ccc(F)cc2F)no1 (stereo not shown) [Ia - 11] | 50% | 0.04 µg/mL | – | – | – | – | – | – | –
11 | CC(C)(C)C(=O)C(Oc1ccc(Cl)cc1)n1cncn1 (stereo not shown) [Triadi-mefon, reference compound] | – | – | – | – | 90 (Leaves covered with symptom between 4 % and 15 % area) | 90 (Leaves covered with symptom between 4 % and 15 % area) | 90 (Leaves covered with symptom between 4 % and 15 % area) | 90 (Leaves covered with symptom between 4 % and 15 % area) | Control Index Powdery Mildew in Cucumber ([5]; 125 ppm): 0 (Leaves covered with symptom more than 66 %); Control Index Powdery Mildew in Cucumber ([5]; 500 ppm): 70 (Leaves covered with symptom between 16 % and 45 % area); pest or weed control at 125 ppm [3]: 34%; pest or weed control at 500 ppm [3]: 49%; Control Index Crown Rust in Oats ([6]; 125 ppm): 50 (Leaves covered with symptom between 46 % and 65 % area); Control Index Crown Rust in Oats ([6]; 500 ppm): 97 (Leaves covered with symptom less than 3 % area); Control Index Powdery Mildew in Wheat ([7]; 125 ppm): 90 (Leaves covered with symptom between 4 % and 15 % area); Control Index Powdery Mildew in Wheat ([7]; 500 ppm): 100
12 | Cc1onc(C(O)(Cn2cncn2)c2ccccc2)c1Cl (stereo not shown) [Ib - 3] | – | 1.25 µg/mL | – | – | – | – | – | – | –
13 | Cc1cc(C(O)(Cn2cncn2)c2ccc(F)cc2)no1 (stereo not shown) [Ia - 6] | – | 0.16 µg/mL | 54% | 85% | – | – | – | – | –
14 | Cc1onc(C(O)(Cn2cncn2)c2ccc(F)cc2)c1Cl (stereo not shown) [Ib - 2] | – | 1.25 µg/mL | 60% | 85% | – | – | – | – | –
